Laboratory results: ChEMBL document CHEMBL2439973, “Discovery of VU0409106: A negative allosteric modulator of mGlu5 with activity in a mouse model of anxiety” (Bioorg Med Chem Lett, 2013)

Columns and labels:
Cytochrome P450 3A4 = Cytochrome P450 3A4 (Homo sapiens, UniProt P08684); experiment: Inhibition of CYP3A4 in human liver microsomes in presence of NADPH; format: ADME, Microsome
Brain [1] = experiment: Fraction unbound in mouse brain homogenates by equilibrium dialysis technique; format: ADME, tissue-based; conditions: brain homogenate
[2] = target: Metabotropic glutamate receptor 5 (Rattus norvegicus) (UniProt P31424); experiment: Negative allosteric modulation of rat mGlu5 receptor expressed in HEK293A cells assessed as inhibition of glutamate-induced calcium mobilization at 30 uM preincubated for 140 seconds prior to glutamate-stimulation measured after 60 seconds relative to glutamate; format: functional, cell-based; conditions: HEK293-A
[3] = target: Metabotropic glutamate receptor 5 (Rattus norvegicus, UniProt P31424); experiment: Negative allosteric modulation of rat mGlu5 receptor expressed in HEK293A cells assessed as inhibition of glutamate-induced calcium mobilization preincubated for 140 seconds prior to glutamate-stimulation measured after 60 seconds; format: functional, cell-based, HEK293-A
[4] = Ratio of drug level in brain to plasma in CD-1 mouse at 10 mg/kg, ip by LC-MS/MS analysis; format: ADME, organism-based; design: dose 10 mg/kg, route intraperitoneal; conditions: brain and plasma, read-out: BPR
Brain [5] = experiment: AUC in CD-1 mouse brain at 10 mg/kg, ip by LC-MS/MS analysis; format: ADME, organism-based; design: dose 10 mg/kg, route intraperitoneal; conditions: in vivo
Plasma [6] = experiment: AUC in CD-1 mouse plasma at 10 mg/kg, ip by LC-MS/MS analysis; format: ADME, organism-based; design: dose 10 mg/kg, route intraperitoneal; conditions: in vivo
[7] = Cmax in CD-1 mouse brain at 10 mg/kg, ip by LC-MS/MS analysis; format: ADME, organism-based; design: dose 10 mg/kg, route intraperitoneal
Brain [8] = experiment: Tmax in CD-1 mouse brain at 10 mg/kg, ip by LC-MS/MS analysis; format: ADME, organism-based; design: dose 10 mg/kg, route intraperitoneal; conditions: in vivo
Plasma [9] = experiment: Cmax in CD-1 mouse plasma at 10 mg/kg, ip by LC-MS/MS analysis; format: ADME, organism-based; design: dose 10 mg/kg, route intraperitoneal; conditions: in vivo
Plasma [10] = experiment: Tmax in CD-1 mouse plasma at 10 mg/kg, ip by LC-MS/MS analysis; format: ADME, organism-based; design: dose 10 mg/kg, route intraperitoneal; conditions: in vivo

Sequence of Metabotropic glutamate receptor 5 (P31424 whole entry): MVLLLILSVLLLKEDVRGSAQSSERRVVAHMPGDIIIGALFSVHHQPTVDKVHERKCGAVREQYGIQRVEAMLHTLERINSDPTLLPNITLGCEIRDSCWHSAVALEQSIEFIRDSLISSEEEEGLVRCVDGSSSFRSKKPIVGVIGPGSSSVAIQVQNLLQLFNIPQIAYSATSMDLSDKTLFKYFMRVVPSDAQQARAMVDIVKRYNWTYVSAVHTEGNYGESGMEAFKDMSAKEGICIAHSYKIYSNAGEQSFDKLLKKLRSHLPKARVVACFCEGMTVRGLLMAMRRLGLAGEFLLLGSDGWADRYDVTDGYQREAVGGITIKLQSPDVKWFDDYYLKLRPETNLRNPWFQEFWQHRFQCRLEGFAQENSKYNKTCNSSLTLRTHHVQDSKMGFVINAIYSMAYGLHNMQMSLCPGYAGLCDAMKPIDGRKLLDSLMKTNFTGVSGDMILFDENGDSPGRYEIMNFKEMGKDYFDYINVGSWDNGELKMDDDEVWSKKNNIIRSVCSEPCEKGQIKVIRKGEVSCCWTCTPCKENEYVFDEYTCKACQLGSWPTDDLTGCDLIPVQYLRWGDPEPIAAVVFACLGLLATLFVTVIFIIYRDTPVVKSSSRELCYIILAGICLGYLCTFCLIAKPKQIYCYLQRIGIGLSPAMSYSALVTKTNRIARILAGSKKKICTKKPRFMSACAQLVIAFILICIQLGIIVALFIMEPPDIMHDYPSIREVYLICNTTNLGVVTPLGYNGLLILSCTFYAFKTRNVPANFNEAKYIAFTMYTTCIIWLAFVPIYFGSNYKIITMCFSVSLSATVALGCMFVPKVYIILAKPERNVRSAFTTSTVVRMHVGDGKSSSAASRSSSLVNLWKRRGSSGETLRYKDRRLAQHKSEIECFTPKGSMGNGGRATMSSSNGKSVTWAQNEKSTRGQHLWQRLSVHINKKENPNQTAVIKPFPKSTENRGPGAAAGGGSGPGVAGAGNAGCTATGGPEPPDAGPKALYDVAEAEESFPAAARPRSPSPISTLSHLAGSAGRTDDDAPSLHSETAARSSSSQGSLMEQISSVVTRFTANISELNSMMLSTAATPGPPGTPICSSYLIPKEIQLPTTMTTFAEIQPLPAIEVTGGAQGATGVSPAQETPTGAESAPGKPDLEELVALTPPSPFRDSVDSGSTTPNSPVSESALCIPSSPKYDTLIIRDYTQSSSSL
Sequence of Cytochrome P450 3A4 (P08684 whole entry): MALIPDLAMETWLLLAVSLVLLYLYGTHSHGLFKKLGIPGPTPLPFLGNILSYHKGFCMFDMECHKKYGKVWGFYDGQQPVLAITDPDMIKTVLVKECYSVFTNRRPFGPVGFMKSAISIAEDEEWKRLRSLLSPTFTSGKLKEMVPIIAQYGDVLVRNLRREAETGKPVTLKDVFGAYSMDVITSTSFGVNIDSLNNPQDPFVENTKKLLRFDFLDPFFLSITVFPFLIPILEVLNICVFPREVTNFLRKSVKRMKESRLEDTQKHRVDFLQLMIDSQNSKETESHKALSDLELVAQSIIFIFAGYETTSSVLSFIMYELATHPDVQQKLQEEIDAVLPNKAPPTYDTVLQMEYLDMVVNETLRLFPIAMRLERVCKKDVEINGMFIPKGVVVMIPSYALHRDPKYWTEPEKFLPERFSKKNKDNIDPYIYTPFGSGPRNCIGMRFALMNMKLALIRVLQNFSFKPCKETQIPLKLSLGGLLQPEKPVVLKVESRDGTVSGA
Sequence of Metabotropic glutamate receptor 5 (Rattus norvegicus) (P31424 21-1203 limits assumed): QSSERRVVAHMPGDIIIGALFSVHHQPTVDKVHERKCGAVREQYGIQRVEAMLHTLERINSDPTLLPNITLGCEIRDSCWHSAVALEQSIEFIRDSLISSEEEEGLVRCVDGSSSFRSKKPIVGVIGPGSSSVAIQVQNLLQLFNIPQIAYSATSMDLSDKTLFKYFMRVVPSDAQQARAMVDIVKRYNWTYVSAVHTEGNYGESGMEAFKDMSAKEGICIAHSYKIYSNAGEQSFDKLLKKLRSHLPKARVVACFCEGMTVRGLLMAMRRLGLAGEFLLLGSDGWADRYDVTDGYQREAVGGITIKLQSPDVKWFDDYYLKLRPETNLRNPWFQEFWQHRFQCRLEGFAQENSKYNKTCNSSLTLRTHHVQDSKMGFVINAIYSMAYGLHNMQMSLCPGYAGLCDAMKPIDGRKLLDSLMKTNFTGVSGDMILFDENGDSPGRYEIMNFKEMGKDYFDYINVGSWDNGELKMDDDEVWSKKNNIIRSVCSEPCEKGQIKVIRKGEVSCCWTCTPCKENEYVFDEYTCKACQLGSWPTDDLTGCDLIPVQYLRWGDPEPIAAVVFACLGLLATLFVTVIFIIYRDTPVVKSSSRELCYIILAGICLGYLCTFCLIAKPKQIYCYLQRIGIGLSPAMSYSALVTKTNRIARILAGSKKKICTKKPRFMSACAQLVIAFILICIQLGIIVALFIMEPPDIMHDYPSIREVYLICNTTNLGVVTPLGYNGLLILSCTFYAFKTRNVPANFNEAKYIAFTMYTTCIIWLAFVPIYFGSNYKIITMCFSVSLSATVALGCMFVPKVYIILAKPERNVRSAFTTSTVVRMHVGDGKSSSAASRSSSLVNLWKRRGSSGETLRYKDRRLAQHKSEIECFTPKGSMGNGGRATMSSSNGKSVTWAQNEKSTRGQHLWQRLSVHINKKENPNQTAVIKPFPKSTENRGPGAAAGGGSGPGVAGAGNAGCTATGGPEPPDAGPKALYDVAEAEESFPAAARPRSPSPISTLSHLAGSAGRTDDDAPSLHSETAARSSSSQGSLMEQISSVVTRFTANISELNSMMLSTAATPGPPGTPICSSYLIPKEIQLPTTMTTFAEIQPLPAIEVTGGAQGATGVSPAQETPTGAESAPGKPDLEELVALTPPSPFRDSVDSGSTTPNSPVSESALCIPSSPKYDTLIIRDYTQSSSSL

| SMILES | %max [2] [%] | IC50 [3] [nM] | other results |
| --- | --- | --- | --- |
| Cc1cccc(NC(=O)c2cc(Cl)cc(Oc3cncnc3)c2)n1 | – | – | IC50 (Cytochrome P450 3A4): 4300 nM; Fu (Brain [1]): 0.052 |
| O=C(Nc1cccc(F)n1)c1cc(Cl)cc(Oc2cncnc2)c1 | – | – | IC50 (Cytochrome P450 3A4): < 100 nM; Fu (Brain [1]): 0.057 |
| Nc1cc(NC(=O)c2cccc(Cl)c2)cc(Oc2cccnc2)c1 | 1.3 | 284 | – |
| O=C(Nc1ccc(Cl)cn1)c1cc(Cl)cc(Oc2cncnc2)c1 | – | 103 | – |
| O=C(Nc1nc(C(F)F)cs1)c1cc(Cl)cc(Oc2cncnc2)c1 | – | 310 | – |
| Cc1csc(NC(=O)c2cc(Oc3cncnc3)cc(C(F)(F)F)c2)n1 | 1.7 | 283 | – |
| N#Cc1cc(Oc2cncnc2)cc(C(=O)Nc2ccc(F)cn2)c1 | 1.1 | 318 | – |
| O=C(Nc1ccc(F)cn1)c1cc(Cl)cc(Oc2cncnc2)c1 | – | – | Kp [4]: 0.93; AUC (Brain [5]): 365 ng·h/g; AUC (Plasma [6]): 391 ng·h/mL; Cmax [7]: 311 ng/g; Tmax (Brain [8]): 15 min; Cmax (Plasma [9]): 303 ng/mL; Tmax (Plasma [10]): 30 min; IC50 (Cytochrome P450 3A4): 6200 nM; Fu (Brain [1]): 0.08 |
| O=C(Nc1cccc(Cl)n1)c1cc(Cl)cc(Oc2cncnc2)c1 | – | – | IC50 (Cytochrome P450 3A4): 1900 nM; Fu (Brain [1]): 0.019 |
| Cc1cc(NC(=O)c2cc(Cl)cc(Oc3cncnc3)c2)ncc1F | – | 3250 | – |
| Cc1cccc(NC(=O)c2cccc(Oc3cccnc3)c2)c1 | 1.4 | 2190 | – |
| Cc1cccc(NC(=O)c2cc(Cl)cc(Oc3cnc(C)nc3)c2)n1 | 1.6 | 96 | – |
| N#Cc1cncc(Oc2cc(Cl)cc(C(=O)Nc3ccc(F)cn3)c2)c1 | 1.7 | 27 | IC50 (Cytochrome P450 3A4): 1700 nM; Fu (Brain [1]): 0.016 |
| Cc1csc(NC(=O)c2cccc(Oc3cncnc3)c2)n1 | – | 205 | – |
| O=C(Nc1cccc(Cl)c1)c1cccc(Oc2cccnc2)c1 | 1.6 | 1960 | – |
| O=C(Nc1nccs1)c1cc(F)cc(Oc2cncnc2)c1 | – | 1790 | – |
| Cc1csc(NC(=O)c2cc(Cl)cc(Oc3cncnc3)c2)n1 | – | – | IC50 (Cytochrome P450 3A4): 2200 nM; Fu (Brain [1]): 0.025 |
| Cc1csc(NC(=O)c2cccc(Oc3cccnc3)c2)n1 | – | 772 | – |
| Cc1cc(Oc2cncnc2)cc(C(=O)Nc2ccc(F)cn2)c1 | – | 19 | – |
| CCc1ccnc(NC(=O)c2cc(Cl)cc(Oc3cncnc3)c2)c1 | – | 4450 | – |
| O=C(Nc1ccc(F)cn1)c1cccc(Oc2cccnc2)c1 | – | 3780 | – |
| Cc1ncc(Oc2cc(Cl)cc(C(=O)Nc3ccc(F)cn3)c2)cn1 | 2.6 | 4470 | – |
| Cc1nc(NC(=O)c2cc(F)cc(Oc3cncnc3)c2)sc1F | – | 54 | – |
| Cc1cccc(NC(=O)c2cc(Cl)cc(Oc3cncc(F)c3)c2)n1 | 1.8 | 7.5 | IC50 (Cytochrome P450 3A4): 700 nM; Fu (Brain [1]): 0.003 |
| Cc1nc(NC(=O)c2cc(Cl)cc(Oc3cncnc3)c2)ccc1F | – | 50 | – |
| O=C(Nc1ccc(F)cn1)c1cc(Oc2cncnc2)cc(C(F)(F)F)c1 | 3.2 | 5530 | – |
| O=C(Nc1ccc(F)c(C(F)F)n1)c1cc(Cl)cc(Oc2cncnc2)c1 | – | 502 | – |
| O=C(Nc1ccc(F)cn1)c1cc(Cl)cc(Oc2cncc(F)c2)c1 | 1.1 | 25 | IC50 (Cytochrome P450 3A4): 1300 nM; Fu (Brain [1]): 0.007 |
| COc1cccc(NC(=O)c2cc(F)cc(Oc3cncnc3)c2)n1 | – | 668 | – |
| Cc1cccc(NC(=O)c2cc(Cl)cc(Oc3cncc(C#N)c3)c2)n1 | 1.6 | 10 | – |
